One series concerns HCT-116 cells. The series is described as follows: MTT assay in HCT-116 cells. The format is cell-based, Human. Here is the method: Human CRC cell lines were purchased from the American Type Culture Collection (VA, USA). HCT-116 cells were cultured in DMEM (HyClone, Utah, USA) containing 10% fetal bovine serum (FBS; Gibco, NY, USA). SW480 cells were cultured in RPMI 1640 medium (HyClone, Utah, USA) containing 10% FBS. All cells were cultured in an incubator (Thermo, CA, USA) at a constant temperature of 37 °C and 5% CO2. N-Acetylcysteine (NAC), Trolox, MLN4924, 5-Fu, and capecitabine were purchased from MedChemExpress LLC (Shanghai, China). MG132 was purchased from Santa Cruz Biotech (CA, USA). Chloroquine (CHQ) was purchased from Sigma (CA, USA). Rapamycin was purchased from Beyotime (Shanghai, China). Primary antibodies against SRSF3 and E-Cadherin were purchased from Abcam (Cambridge, UK). Primary antibodies against N-Cadherin, Caspase 3, DHCR24, CAT, Akt and phospho-Akt (Ser473) were purchased from Cell Signaling Technology (MA, USA). Primary antibodies against β-actin, mTOR, and phospho-mTOR ([…]) were purchased from Beyotime (Shanghai, China). Primary antibody against Vimentin was purchased from Proteintech (Wuhan, China). Primary antibody against Bcl-2 was purchased from Santa Cruz Biotech (CA, USA). Primary antibody against Flag was purchased from MBL Beijing Biotech (Beijing, China). CRC cells were transfected with 100 nM siRNA or treated with various doses of SFI003 for 24 h, 48 h, or 72 h before being subjected to MTT assay as described previously.

A further series relates to ROS. The series is described as follows: Detection of ROS (DCFH-DA) in HCT-116 and SW480 cells. The format is cell-based, Human. To be noted: HCT-116 and SW480, 10, 20 and 50 μM, 72 h, dose-dependent. Here is the method:
Following treatment with SFI003 or siRNA, the cells were washed with PBS and incubated with DCFH-DA for 20 min at 37 °C. After washing three times, the cells were collected and measured at 488 nm excitation and 525 nm emission by a microplate reader (Tecan, Switzerland) according to the manufacturer’s instructions (Beyotime, Shanghai, China). The protein concentrations were determined by using a BCA assay (TaKaRa, Kusatsu, Japan).

In a further series the test system is SW480 xenografts. Nature of the series: SW480 xenografts in SCID mice. The format is in vivo. The procedure:
(§1) To explore the effect of SFI003 on the growth of CRC, approximately 3 × 10^6 HCT-116 cells or 8 × 10^6 SW480 cells were collected and mixed with Matrigel (Corning, NY, USA) at a 1:1 ratio by volume and then injected into the lower back region of mice. When tumors were palpable, mice were randomly divided into four groups. One group received vehicle as a control, while the other three groups were orally administered SFI003 at a dosage of 100 or 200 mg/kg or capecitabine at a dosage of 100 mg/kg for two continuous weeks. The tumor sizes and mouse body weights were monitored every other day. At the end of the experiment, tumors and blood samples were collected for further studies. The tumor size was evaluated according to Eq.: tumor size (mm^3) = (length × width^2) × 0.5.

The test system of a further series is HCT-116 and SW480 cells. Nature of the series: Wound-healing and Transwell migration assays. The format is cell-based, Human. To be noted: HCT-116 and SW480, 10 μM, 24 h. Here is the method:
HCT-116 and SW480 cells were seeded into six-well plates in confluent monolayers. Then, the cells were transfected with 100 nM siRNA or treated with 10 μM SFI003. Scratch wounds were created using a sterilized tip in 0.5% serum medium. Images were captured at 0 h, 24 h, and 72 h after wounding. Three independent measurements of wound width were conducted.
HCT-116 and SW480 cells (1 × 10^5) were resuspended in 200 µl medium containing 0.1% serum and then added to the upper compartment of migration chambers (Costar, Corning, NY, USA). The bottom chamber was filled with 600 µl cell culture medium with 20% FBS as an attractant. After coculture for 24 h or 48 h, the cells were fixed in 4% paraformaldehyde and stained with 0.1% crystal violet. The stained cells in 8 random fields were counted at ×100 magnification. Three independent measurements were conducted.

The next series concerns DHCR24. The series is described as follows: RT-PCR and WB of DHCR24 in HCT-116 and SW480 cells. The format is cell-based, Human. To be noted: HCT-116 and SW480, 20 μM, 72 h. The procedure: HCT-116 and SW480 cells were transfected with 100 nM siRNA for 48 h or treated with SFI003 for 72 h. Total RNA was isolated by using TRIzol (Invitrogen, CA, USA) according to the manufacturer’s instructions and then was reversely transcribed into cDNA with random primers (TaKaRa, Kusatsu, Japan) and RT-Kit (Thermo, CA, USA). The cDNA was amplified by PCR using the primers listed in Supplementary Table 1.
After cell lysates were prepared, protein concentrations were determined by a BCA assay (TaKaRa, Kusatsu, Japan). Equal amounts of protein were separated by SDS–PAGE and transferred to polyvinylidene difluoride membranes. After normalization, the blots were probed with appropriate antibodies, as described previously.

Series [1] is described as follows: Metabolic stability in human liver microsomes. The format is in vitro ADME.
Series [2] can be described thus: Metabolic stability in rat liver microsomes. The format is in vitro ADME.
Series [3] is described as follows: Serum biochemical analysis / tolerability in treated mice. The format is in vivo. Here is the method:
as §1

Setting [4] is: read-out: intrinsic clearance (converted).
The mark [5] stands for this setting: SFI003-treated tumor-bearing mice.

“Also recorded” adds a separate entry of the source.

As to `COc1ccc(-c2csc(N/N=C(\C)c3nc4ccccc4[nH]3)n2)cc1` [SFI003], the “cytotoxicity after SRSF3 silencing” value with HCT-116 cells (HCT-116, SRSF3 siRNA 24 h, then 10 μM for 72 h) is on record as “eliminated”. In the series with HCT-116 cells (HCT-116, various doses, 24, 48 and 72 h), the inhibition of proliferation result is “dose- and time-dependent”. In addition, the “IC50 compared with the other synthesized compounds” value in the series on HCT-116 cells (HCT-116 cells, 72 h) is “the most potent compound with the lowest IC50 value”. The compound also yielded an IC50 in the series with HCT-116 cells (Homo sapiens, HCT-116 cells, 72 h) of 8.78 µM. Also, the ROS level entry in the series with ROS is “significantly enhanced”. Besides, in the series with SW480 xenografts (100 or 200 mg/kg orally, two weeks, dose-dependent), the “growth of SW480 xenografts” value is “efficiently suppressed”. Moreover, in the series with SW480 xenografts (SW480 tumor-bearing mice, oral, two weeks), the body weight result is listed as “slight reduction”. Further, the “antitumor activity compared with capecitabine” value with SW480 xenografts (SW480 xenografts, oral, two weeks, capecitabine 100 mg/kg) is “stronger inhibitory activity than capecitabine; also recorded: more potent antitumor efficacy than capecitabine”. Moreover, the “concentration of SFI003 in tumors versus plasma” value in the series with SW480 xenografts (mice grafted with SW480 cells, 100 mg/kg, 2 h) is “close to the plasma”. Also, the “migration of CRC cells” value in the series on HCT-116 and SW480 cells was “repressed”. Besides, in the series with DHCR24, the “DHCR24 mRNA and protein” value is “inhibited”. For the same compound, the half time in series [1] is given as 31.50 min; in series [2] it was 53.31 min. Further, the values for the CLint scaled in series [1] (setting [4]) and in series [2] (setting [4]) were 55.2 mL/min/kg and 46.7 mL/min/kg, respectively. In addition, the “serum ALP, ALT, AST, GGT” value in series [3] (setting [5]) is “no alteration”. Besides, the “serum CRE and URE” value in series [3] (setting [5]) is “moderate”. The tolerability in vivo result in series [3] (mice) was “well tolerated”.

The values above are taken from publication PMC9061822, “A novel SRSF3 inhibitor, SFI003, exerts anticancer activity against colorectal cancer by modulating the SRSF3/DHCR24/ROS axis” (Cell Death Discovery, 2022).
